# Experimental data published in patent US20250195474A1, “Piezo Inhibition for Wound Healing” (priority 2022, published 2025).
# No end group written: not given here.
# Assays:
# [1] = tested on: mouse adipocytes; assay: Proliferation and apoptosis assays for treatment toxicity; assay type: cell-based; conditions: 0.5x, 1x, 2x standard concentration [500 nm], 7 days
# Procedure: P1i and P2i treated adipocytes (and fibroblast controls) were examined for treatment toxicity using proliferation and apoptosis assays. […] Then, cells were treated with either 0.5×, 1×, or 2× the standard concentration of Piezo1 or Piezo2 inhibitors [500 nm]. After 7 days of treatment, cells were fixed or harvested for analysis of potential toxicity. For proliferation, EdU (5-ethynyl-2′-deoxyuridine) incorporation in vitro was investigated on differentiated adipocytes and undifferentiated fibroblasts using the Click-iT™ EdU Cell Proliferation Kit for Imaging, Alexa Fluor™ 488 dye (ThermoFisher, Cat: C10337). Proliferation was detected according to the manufacturer's guidelines. To evaluate apoptosis, the Annexin V Apoptosis Detection Kit-AF647 (Abcam, Cat: 219919) was used according to the manufacturer's guidelines.
# [2] = tested on: human adipocytes; assay: Human adipocyte-populated collagen I hydrogels with or without mechanical stretch; conditions: 10% equibiaxial strain, 7 days
# [3] = tested on: dorsal excisional wounds; assay: Splinted dorsal excisional wounding with inhibitor injected at POD 0; assay type: in vivo, mouse
# [4] = tested on: existing scars; assay: Visium spatial transcriptomic analysis of treated existing scars; assay type: in vivo, mouse
# Procedure: Wound specimens were rapidly harvested and flash frozen in OCT. Using the Visium Tissue Optimization Slide and Reagent Kit, permeabilization time was optimized at a thickness at 10 μm per section and 37 minutes for mouse tissue. Following cryo-sectioning at −20 degrees onto gene expression slides the expression slide and reagent kit was used to produce sequencing libraries. The libraries were then sequences using NextSeq (Illumina). Following demultiplication the raw FASTQ files and histology images were processed by sample with the Space Ranger software for genome alignment. The raw spaceranger output files for each sample was then read into a Seurat class object in R using Seurat's Load10× function. Data was normalized using the SCT transform with default parameters. To ascertain the integration of our scRNAseq and Visium spatial analysis we employed the FindTransferAnchors( ) function from Seurat, which allowed the alignment of data using the two datasets. This cross-platform linkage is performed serially in an unconstrained and constrained fashion.
# To further analyze the spatial gene expression following scar rescue, the Visium platform was applied to scars treated with P1i or PBS at POD 30, 75, and 120 (FIG. 9A). Similar to analysis of acute wound healing, the epidermal, dermal, and hypodermal layers were easily elucidated from the spatial transcriptomic analysis in scars at POD 60 (FIG. 9B). Furthermore, the expected cell types including fibroblasts, immune, epithelial, and adipocytes were identified by spatial expression of representative genes (FIG. 36A).
# [5] = tested on: existing scars; assay: Treatment of existing scars during remodeling (scar rescue); assay type: in vivo, mouse
# Text: While wound re-epithelialization is complete relatively quickly (around 2 weeks), wounds continue to heal beneath the surface for months to years in a process known as scar remodeling. (Foster et al., 2021; Gurtner et al., 2008) Remodeling is the longest and least well understood phase of wound repair but is likely critical to ultimate outcomes. We postulated that ADFs could continue to play a role in scarring during the remodeling process; if this were the case, we wondered whether ADF activity could be targeted during wound remodeling, via P1i in existing, actively remodeling scars, to ultimately reduce scarring and drive regeneration (FIG. 6A,C). Thus, we administered P1i to existing scars at POD 30 (early remodeling period), POD 75 (mid-remodeling), and POD 120 (late remodeling), then harvested tissue one month later at POD 60, POD 105, and […] respectively (FIG. 6A, C).
# [6] = tested on: human fibroblasts; assay: Human fibroblasts in 3D collagen gels with stretching; assay type: cell-based
# Text: To further confirm that human cluster 3 represented a pro-regenerative ADF population we utilized our in vitro collagen gel system. We first, FACS sorted human fibroblasts based on expression of cluster 3 markers including ROBO2, CD29, and SFRP2 and seeded them into 3D collagen gels (FIG. 42B). […] In contrast, stretching with P1 inhibition kept the fibroblasts in a more adipocyte-like phenotype, with high expression of PPARg and low expression of Collagen Type I, similar to fibroblasts in an unstretched state (FIG. 42B).
# To determine if P1i may activate […] Wnt pathways to maintain cluster 3 in an adipocyte-like phenotype, we applied Wnt5a recombinant protein to the in vitro collagen gel system (FIG. 42C). […] In summary, P1i treatment may revert fibroblasts towards the mechanically naïve fibroblast pro-regenerative fibroblast population through the activation of canonical Wnt pathways and thereby preventing the transition to pro-scarring phenotypes defined by CJUN and VCAM1 expression.
# [7] = tested on: human adipocytes; assay: Calcium imaging of hydrogel-bound adipocytes (Fluo-4 AM); assay type: cell-based; conditions: stretched human adipocytes
# Text: Calcium imaging was used to determine in vitro Ca^2+ flow in hydrogel-bound adipocytes with or without mechanical strain and with or without Piezo1 inhibitor treatment. A Fluo-4, AM cell permeant kit (ThermoFisher, Cat: F-14201) was used per the manufacturer's instructions. […] Imagej was used for image quantification.
# [8] = tested on: mouse adipocytes; assay: Mouse adipocyte-populated collagen I hydrogels with or without mechanical stretch; conditions: 10% equibiaxial strain, 7 days; GsMTx4 500 nM, D-GsMTx4 500 nM, PF573228 10 uM, Verteporfin 300 nM
# [9] = treated at POD 30, 75 or 120, harvested one month later
substance,measurement,setting,value
"GsMTx4 (GCLEFWWKCNPNDDKCCRPKLKCSKLFKLCNFSF; ends and bridges not checked; cysteine pairing not given here; UniProt Q7YT39 47-80, looked up) [P1i]","percentage of cells positive for EdU, annexin V or DAPI by FACS",[1],None of the markers' expression was significantly different
same,stretch-induced hypertrophy of human adipocytes,[2],reversed
same,time to complete wound re-epithelialization,"[3]; 30 uL of 0.2 mg/ml intradermal at wound edge, POD 0",did not significantly affect
same,Oil Red O staining and IF for cytokeratins 14/19 (regenerating appendages),[3]; POD 14,presence of putative regenerating sebaceous glands/HF
same,"mechanical properties (tensile testing, Young's modulus)",[3]; POD 14,reverted scars to more unwounded-like mechanical properties
same,adipocyte-derived fibroblasts (ADFs) in wounds,"[3]; POD 14, FACS and histology",absent
same,structures consistent with unerupted hair follicles,"[3]; POD 14, single injection at POD 0",numerous structures morphologically consistent with unerupted hair follicles
same,Col1 and α-SMA,[3]; POD 14 and POD 30,reduced
same,ECM density,[3]; POD 14 and POD 30,less dense
same,hair follicle formation,[3]; POD 30,allowed for hair follicle formation
same,spatially identified adipocytes,"[4]; POD 60, 105 and 150, vs PBS",greater in number
same,differential interaction maps (Visium),[4]; existing scars,larger number of interactions between adipocytes and epithelial cells
same,differentially expressed genes during scar rescue,[4]; existing scars,high expression of genes associated with the epidermis
same,"spatial expression of Piezo1, Piezo2, Yap1 and Ptk2","[4]; existing scars, all timepoints",observed mostly at the basal aspects of the wounds
same,organization of hair follicles,[5]; POD 105 and 120 vs POD 60,less organized than those at POD 60
same,ADFs in late treated wounds,[5]; late treatment of existing scars,significantly reduced
same,ECM architecture in existing scars,[5]; [9],full recovery of unwounded-like ECM architecture
same,hair follicles in existing scars,[5]; [9],return of hair follicles
same,wound regeneration in existing scars,[5]; [9],near-complete wound regeneration
same,"phenotype of human fibroblasts (PPARg, Collagen Type 1)",[6],a more adipocyte like phenotype with high expression of PPARg and low expression of Collagen Type 1
same,calcium staining with stretching,[7],decreased
same,"stretch-induced phenotypic switch (losing adiponectin, expressing Col1)",[8],abrogated
